Test results taken from ChEMBL document CHEMBL4342498, “Design and Discovery of an Orally Efficacious Spiroindolinone-Based Tankyrase Inhibitor for the Treatment of Colon Cancer” (J Med Chem, 2020).
Converted amounts (≈) assume the structure as drawn.

How the values were obtained:
[1] = target: T1, Poly [ADP-ribose] polymerase tankyrase-2 (Homo sapiens, UniProt Q9H2K2); assay: Inhibition of recombinant human N-terminal TEV cleavage site-fused/FLAG-poly his-tagged TNKS2 ARC5-SAM-PARP domain (613 to 1166 residues) expressed in Escherichia coli assessed as reduction in auto-PARylation preincubated for 10 mins followed by biotinylated-NAD+ addition and measured after 45 mins by ELISA
T1 sequence (Q9H2K2 whole entry): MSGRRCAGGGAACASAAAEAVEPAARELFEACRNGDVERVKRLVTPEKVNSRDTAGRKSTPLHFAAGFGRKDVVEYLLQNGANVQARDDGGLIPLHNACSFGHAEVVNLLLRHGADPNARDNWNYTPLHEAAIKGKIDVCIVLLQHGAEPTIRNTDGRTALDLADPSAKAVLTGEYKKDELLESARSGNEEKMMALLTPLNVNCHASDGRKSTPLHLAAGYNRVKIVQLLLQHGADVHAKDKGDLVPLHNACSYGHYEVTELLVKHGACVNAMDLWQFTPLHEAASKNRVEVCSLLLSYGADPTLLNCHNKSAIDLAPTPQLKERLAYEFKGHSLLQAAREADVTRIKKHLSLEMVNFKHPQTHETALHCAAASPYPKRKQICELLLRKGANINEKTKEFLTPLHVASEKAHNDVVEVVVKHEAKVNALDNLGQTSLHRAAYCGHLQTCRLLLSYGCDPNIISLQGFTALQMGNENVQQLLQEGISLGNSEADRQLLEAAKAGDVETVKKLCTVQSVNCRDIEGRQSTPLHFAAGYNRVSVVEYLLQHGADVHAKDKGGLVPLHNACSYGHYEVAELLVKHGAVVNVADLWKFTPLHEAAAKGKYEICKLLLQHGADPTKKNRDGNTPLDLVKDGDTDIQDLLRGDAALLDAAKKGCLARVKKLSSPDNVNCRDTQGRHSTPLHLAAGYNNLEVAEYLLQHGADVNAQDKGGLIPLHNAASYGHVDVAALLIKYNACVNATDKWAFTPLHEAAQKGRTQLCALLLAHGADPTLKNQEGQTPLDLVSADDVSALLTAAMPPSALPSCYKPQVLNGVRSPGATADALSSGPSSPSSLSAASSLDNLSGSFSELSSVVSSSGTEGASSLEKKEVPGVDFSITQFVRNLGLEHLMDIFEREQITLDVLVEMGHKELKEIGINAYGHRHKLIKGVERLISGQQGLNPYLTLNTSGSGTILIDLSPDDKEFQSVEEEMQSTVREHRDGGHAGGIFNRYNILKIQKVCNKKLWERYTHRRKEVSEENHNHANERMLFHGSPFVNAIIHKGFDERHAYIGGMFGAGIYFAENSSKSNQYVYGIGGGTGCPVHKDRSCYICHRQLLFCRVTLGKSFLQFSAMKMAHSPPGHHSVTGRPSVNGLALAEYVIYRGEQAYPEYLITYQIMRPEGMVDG

COLO 320DM = assay: Antiproliferative activity against human COLO320DM cells assessed as inhibition of cell growth measured after 4 days by CellTiter-Glo assay; type: functional; settings: 96 h
[2] = Stability in mouse liver microsomes assessed as parent compound remaining at 1 uM measured after 60 mins in presence of NADPH by LC-MS/MS analysis; type: ADME, Microsome; settings: read-out: Stability
[3] = Stability in human liver microsomes assessed as parent compound remaining at 1 uM measured after 60 mins in presence of NADPH by LC-MS/MS analysis; type: ADME, Microsome; settings: read-out: Stability
MDR1 = assay: Efflux ratio of permeability across basolateral to apical side over apical to basolateral side in MDCK2-MDR1 cells; type: ADME, cell-based, Canis lupus familiaris; settings: dog, MDCK-MDR1
[4] = Efflux ratio of permeability across basolateral to apical side over apical to basolateral side in MDCK2 cells; type: ADME, cell-based, Canis lupus familiaris, MDCK-II; settings: dog, mdck
[5] = Net efflux ratio of permeability across basolateral to apical side over apical to basolateral side in MDCK2-MDR1 cells to MDCK2 cells; type: ADME, cell-based, Canis lupus familiaris; settings: dog, mdck
[6] = target: T2, Poly [ADP-ribose] polymerase tankyrase-1 (Homo sapiens, UniProt O95271)
T2 sequence (O95271 whole entry): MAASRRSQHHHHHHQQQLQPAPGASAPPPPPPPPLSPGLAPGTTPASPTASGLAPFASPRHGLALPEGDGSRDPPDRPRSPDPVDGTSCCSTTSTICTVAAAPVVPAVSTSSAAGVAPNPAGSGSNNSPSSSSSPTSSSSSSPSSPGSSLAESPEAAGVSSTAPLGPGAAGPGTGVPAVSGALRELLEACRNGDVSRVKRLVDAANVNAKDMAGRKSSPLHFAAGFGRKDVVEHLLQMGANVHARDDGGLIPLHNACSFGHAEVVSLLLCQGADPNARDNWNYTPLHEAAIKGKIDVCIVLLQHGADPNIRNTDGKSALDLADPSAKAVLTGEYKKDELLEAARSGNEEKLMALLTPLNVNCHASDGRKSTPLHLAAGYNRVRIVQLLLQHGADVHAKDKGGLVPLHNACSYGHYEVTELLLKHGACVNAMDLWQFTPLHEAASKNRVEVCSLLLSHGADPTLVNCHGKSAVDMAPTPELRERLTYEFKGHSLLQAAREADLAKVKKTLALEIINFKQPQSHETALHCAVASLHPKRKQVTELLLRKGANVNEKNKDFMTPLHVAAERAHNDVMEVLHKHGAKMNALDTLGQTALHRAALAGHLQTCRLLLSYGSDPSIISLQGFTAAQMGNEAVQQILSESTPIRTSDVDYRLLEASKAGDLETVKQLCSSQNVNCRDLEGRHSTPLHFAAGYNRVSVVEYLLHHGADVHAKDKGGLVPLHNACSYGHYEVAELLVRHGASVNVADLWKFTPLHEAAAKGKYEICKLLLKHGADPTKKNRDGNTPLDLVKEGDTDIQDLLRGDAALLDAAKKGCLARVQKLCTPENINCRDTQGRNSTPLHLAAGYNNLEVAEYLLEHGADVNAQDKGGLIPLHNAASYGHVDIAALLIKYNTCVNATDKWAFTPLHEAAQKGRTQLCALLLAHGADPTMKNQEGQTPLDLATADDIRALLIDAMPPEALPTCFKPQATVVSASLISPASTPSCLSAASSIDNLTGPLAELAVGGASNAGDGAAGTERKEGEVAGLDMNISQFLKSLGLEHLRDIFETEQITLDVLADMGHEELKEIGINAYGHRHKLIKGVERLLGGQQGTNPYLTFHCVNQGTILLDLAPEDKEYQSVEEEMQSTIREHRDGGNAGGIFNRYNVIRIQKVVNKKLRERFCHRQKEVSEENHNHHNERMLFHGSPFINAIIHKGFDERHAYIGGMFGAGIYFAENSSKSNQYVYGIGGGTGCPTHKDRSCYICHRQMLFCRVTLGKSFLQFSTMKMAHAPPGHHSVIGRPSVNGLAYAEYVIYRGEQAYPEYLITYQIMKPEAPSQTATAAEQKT
Description: Inhibition of recombinant human N-terminal TEV cleavage site-fused/FLAG-poly his-tagged TNKS SAM-PARP domain (1024 to 1327 residues) expressed in Escherichia coli assessed as reduction in auto-PARylation preincubated for 10 mins followed by biotinylated-NAD+ addition and measured after 45 mins by ELISA

Tankyrase 1/2 [7] = target: T3, Tankyrase 1/2 (Homo sapiens, UniProt Q9H2K2+O95271); settings: hek293
T3 sequence (Q9H2K2 whole entry): T1 sequence (Q9H2K2 whole entry)
T3 sequence (O95271 whole entry): T2 sequence (O95271 whole entry)
Description: Inhibition of TNKS/TNKS2 (unknown origin) expressed in HEK293 cells assessed as reduction in Wnt-signaling measured after 24 hrs by TCF-luciferase reporter gene assay

Tankyrase 1/2 [8] = target: T3, Tankyrase 1/2
Description: Inhibition of TNKS/TNKS2 (unknown origin) expressed in human DLD1 cells assessed as reduction in Wnt-signaling measured after 24 hrs by TCF-luciferase reporter gene assay

physchem = settings: phosphate buffered saline, pH 7.4

Row | Compound | IC50 [1] [nM] | GI50 (COLO 320DM) [nM] | remaining at 1 h, 1 µM [2] [%] | remaining at 1 h, 1 µM [3] [%] | efflux ratio (MDR1) | efflux ratio [4] | Ratio [5] | IC50 [6] [nM] | IC50 (Tankyrase 1/2 [7]) [nM] | IC50 (Tankyrase 1/2 [8]) [nM] | solubility at 1 h, 200 µM (physchem) [µg/mL]
1 | CN1CCCc2c1nc(N1CCC3(CC1)C(=O)N(C)c1cc(F)cc(F)c13)[nH]c2=O | 10.7 | 220 | 0 | 0.3 | 3.1 | 1.1 | 2.8 | 7.9 | 3.9 | 14.4 | 16 (≈ 38.5 µM)
2 | CN1CCCc2c1nc(N1CCC3(CC1)C(=O)N(C)c1cc(N4CCOCC4)cc(F)c13)[nH]c2=O | 10.5 | 100 | 46.5 | 6.3 | 7.8 | 1.9 | 4.1 | 14.9 | 0.1 | 2 | 72.2 (≈ 150 µM)
3 | CN1CCCc2c1nc(N1CCC3(CC1)C(=O)N(CC1COC1)c1cc(F)cc(F)c13)[nH]c2=O | 12.2 | 200 | 0.3 | 0 | 8.4 | 1.2 | 7 | 7.8 | 0.3 | 7.2 | 9.3 (≈ 19.7 µM)
4 | CN1CCC(Oc2cc(F)c3c(c2)N(C)C(=O)C32CCN(c3nc4c(c(=O)[nH]3)CCCN4C)CC2)CC1 | 21.2 | 660 | 60.3 | 22.4 | 11.7 | 4.6 | 2.5 | 6.1 | 0.1 | 2.7 | 102 (≈ 201 µM)
5 | CN1CCCc2c1nc(N1CCC3(CC1)C(=O)N(CC(O)CO)c1cc(F)cc(F)c13)[nH]c2=O (stereo unspecified) | 12.5 | 710 | 42.7 | 23.9 | 43.7 | 11.2 | 3.9 | 8.9 | 0.7 | 14.5 | 88.2 (≈ 185 µM)
6 | CN1CCc2c1nc(N1CCC3(CC1)C(=O)N(CCO)c1cc(F)cc(F)c13)[nH]c2=O | 27.6 | 2370 | – | – | – | – | – | 14.1 | 4.4 | 32.9 | –
7 | CN1CCCc2c1nc(N1CCC3(CC1)C(=O)N(CS(C)(=O)=O)c1cc(F)cc(F)c13)[nH]c2=O | 5.5 | 530 | 0.1 | 4.1 | 12 | 3.3 | 3.6 | 4.3 | 0.1 | 5.7 | 3 (≈ 6.08 µM)
8 | Cn1ccc2c(=O)[nH]c(N3CCC4(CC3)CN(CCO)c3cc(F)cc(F)c34)nc21 | 7 | 3560 | – | – | – | – | – | 3.8 | 1.1 | 7.1 | –
9 | Cn1ccc2c(=O)[nH]c(N3CCC4(CC3)C(=O)N(CCO)c3cc(F)cc(F)c34)nc21 | 10.2 | > 20000 | – | – | – | – | – | 4.5 | 1.5 | 6.3 | –
10 | O=C1N(CCO)c2cc(F)cc(F)c2C12CCN(c1nc3c(c(=O)[nH]1)CCCC3)CC2 | 20.6 | 2270 | – | – | – | – | – | 14.9 | 2.1 | 71.2 | –
11 | CN1CCc2c1nc(N1CCC3(CC1)CN(CCO)c1cc(F)cc(F)c13)[nH]c2=O | 73.6 | 5010 | – | – | – | – | – | 53.5 | 36.5 | 140.6 | –
12 | Cc1cccc2c(=O)[nH]c(N3CCC4(CC3)CN(CCO)c3cc(F)cc(F)c34)nc12 | 8.5 | 720 | – | – | – | – | – | 5.5 | 3.1 | 13.7 | –
13 | Cc1cccc2c(=O)[nH]c(N3CCC4(CC3)C(=O)N(CCO)c3cc(F)cc(F)c34)nc12 | 3.4 | 2490 | – | – | – | – | – | 5.3 | 0.2 | 4.8 | –
